US20050197331A1, “Novel anti-inflammatory and analgesic heterocyclic amidines that inhibit nitrogen oxide (NO) production” (ROTTAPHARM SPA, priority 2004, published 2005)
Structures can show the parent of a compound that is named as a salt. Where two headings read alike, the source gives them in different places.

Experiments:
PGE2 = experiment: Inhibition of PGE2 formation in rabbit articular chondrocytes stimulated with IL-1β (RIA); assay type: cell-based
Experimental: (§1) a) The inhibitory activity on the formation of NO measured as NO2^− (nitrite) and PGE2 was studied in vitro on culture media of rabbit articular chondrocytes stimulated with the cytokine IL-1β (1 ng/ml) for 48 hours. For the preparation of the chondrocytes, the method described by Berenbaum et al. [FEBS Letters 340, 51-55 (1994)] was followed. Briefly, fragments of cartilage removed aseptically from the articular heads of rabbit shoulder, hip and knee were finely ground and digested at 37° C. in hyaluronidase, trypsin and collagenase solutions, giving, after filtration through sterile gauze and centrifugation at 600×g and suitable dilution with 10% DMEM-FCS 10%, a concentration per well of about 1×10^5 cells. The cells were maintained under these conditions until confluent (about 15 days), the medium being replaced every 3 days. At this point, the test products dissolved in the medium were added to each sample and, after 20 minutes, 350 μl of IL-1β were added, to give a final concentration of 1 ng/ml. The stimulation lasted 48 hours at 37° C. (incubation in air/7% CO2). A nitrite assay was subsequently performed on the cell supernatant, as described by Green et al. [Anal. Biochem. 126, 131-138 (1982)], and of PGE2 by RIA assay. The results obtained are shown in Table 3, in which is given, for a number of the compounds that are the subject of the invention and that are already illustrated in Table 1, the IC50, i.e. the concentration (micromolar) of antagonist capable of inhibiting the formation of nitrites and PGE2 by 50% relative to the control group, i.e. relative to the cells stimulated with IL-1β but without addition of antagonists.

[1] = system: formation of NO measured as NO2^− (nitrite); experiment: Inhibition of NO (nitrite) formation in rabbit articular chondrocytes stimulated with IL-1β; assay type: cell-based; details: for IC50: Oryctolagus cuniculus, Chondrocyte
Experimental: as §1

[2] = Oryctolagus cuniculus, Chondrocyte, rabbit articular chondrocytes, IL-1β 1 ng/ml, 48 hours, RIA, read-out: Inhibition % IC50 PGE2
[3] = rabbit articular chondrocytes, IL-1β 1 ng/ml, 48 hours, nitrite in supernatant, read-out: Inhibition % IC50 NO
[4] = rabbit articular chondrocytes stimulated with IL-1β
[5] = Oryctolagus cuniculus, Chondrocyte, rabbit articular chondrocytes stimulated with IL-1β, read-out: IC50, formation of PGE2
[6] = rabbit articular chondrocytes, IL-1β 1 ng/ml, 48 hours, RIA

Row | melting point [°C] | IC50 (PGE2; [2]) [µM] | IC50 [1, 3] [µM] | Compound | also measured
1 | 284.3 to 285.4 |  |  | CC(=N)Nc1ccc2[nH]c(-c3cccc(C(F)(F)F)c3)nc2c1 (as salt: hydrobromid) [Compound 36, N-[2-(3-trifluoromethylphenyl)benzimidazole-5-yl]acetamidine hydrobromide] | 
2 | 266.8 to 269 |  |  | CC(=N)Nc1ccc2[nH]c(-c3ccccc3F)nc2c1 (as salt: hydrobromid) [Compound 38, N-[2-(2-fluorophenyl)benzimidazol-5-yl]acetamidine hydrobromide] | 
3 | 244 to 248 |  |  | COc1ccc(S(N)(=O)=O)cc1-c1nc2cc(NC(C)=N)ccc2s1 (as salt: hydrochloride) [Compound 13, N-[2-(5-aminosulfonyl-2-methoxyphenyl)benzothiazol-5-yl]acetamidine hydrochloride] | 
4 | 283.7 to 286.3 |  |  | CC(=N)Nc1ccc2[nH]c(-c3ccc(F)cc3)nc2c1 (as salt: hydrochloride) [Compound 19, N-[2-(4-fluorophenyl)benzimidazol-5-yl]acetamidine dihydrochloride] | 
5 | 164 to 166 |  |  | CC(=N)Nc1ccc2[nH]c(-c3ccccc3)nc2c1 (as salt: hydrochloride) [Compound 21, N-(2-phenyl-3H-benzimidazol-5-yl)acetamidine hydrochloride] | 
6 | 276.9 to 278.3 |  |  | CCCCCc1nc2ccc(NC(C)=N)cc2[nH]1 (as salt: hydrochloride) [Compound 22, N-(2-pentyl-3H-benzimidazol-5-yl)acetamidine dihydrochloride] | 
7 | 318 to 322 |  |  | CC(=N)Nc1ccc2[nH]c(-c3ccc[nH]3)nc2c1 (as salt: hydrochloride) [Compound 23, N-[2-(pyrrol-2-yl)-3H-benzimidazol-5-yl]acetamidine dihydrochloride] | 
8 | 284 to 288 |  |  | COC(=O)c1ccc(-c2nc3cc(NC(C)=N)ccc3[nH]2)cc1 (as salt: hydrochloride) [Compound 25, Methyl 4-(5-acetimidoylamino-1H-benzimidazol-2-yl)benzoate hydrochloride] | 
9 | 162 to 168 |  |  | CC(=N)Nc1ccc2nc(-c3ccccc3)ncc2c1 (as salt: hydrochloride) [Compound 27, N-(2-phenylquinazolin-6-yl)acetamidine dihydrochloride] | 
10 | 253.1 to 254.7 |  |  | COc1ccccc1-c1nc2cc(NC(C)=N)ccc2n1C (as salt: hydrochloride) [Compound 43, N-[1-methyl-2-(2-methoxyphenyl)benzimidazol-5-yl]acetamidine dihydrochloride] | 
11 | 112.6 to 114.7 | 6.6 | 6.9 | CCCCCc1nc2ccc(NC(C)=N)cc2s1 [Compound 4, N-(2-pentylbenzothiazol-6-yl)acetamidine] | IC50 ([1]; rabbit articular chondrocytes stimulated with IL-1β, read-out: IC50, production of NO): 3 to 8 µM
12 | 117.9 to 120 | 7.4 | 15 | CC(=N)Nc1ccc2sc(Cc3ccccc3)nc2c1 [Compound 11, N-[2-benzylbenzothiazol-5-yl]acetamidine] | 
13 | 90.8 to 91.8 | 1.3 | 88.9 | CC(=N)Nc1ccc2sc(/C=C/c3ccccc3)nc2c1 [Compound 12, N-[2-styrylbenzothiazol-5-yl]acetamidine] | IC50, formation of PGE2 (PGE2; [4]): sub-micromolar; inhibiting the production of NO (in words) [1, 4]: little activity
14 |  | 16.2 |  | COc1ccc(S(N)(=O)=O)cc1-c1nc2cc(NC(C)=N)ccc2s1 [Compound 13, N-[2-(5-aminosulfonyl-2-methoxyphenyl)benzothiazol-5-yl]acetamidine hydrochloride] | 
15 | 187.2 to 188.9 | 42.5 |  | CC(=N)Nc1ccc2sc(-c3ccccn3)nc2c1 [Compound 14, N-[2-(2-pyridyl)benzothiazol-5-yl]acetamidine] | 
16 |  | 0.7 | 78 | CC(=N)Nc1ccc2[nH]c(-c3ccc(F)cc3)nc2c1 [Compound 19, N-[2-(4-fluorophenyl)benzimidazol-5-yl]acetamidine dihydrochloride] | IC50 (PGE2; [5]): 0.3 to 0.8 µM; IC50, formation of PGE2 (PGE2; [4]): sub-micromolar; inhibiting the production of NO (in words) [1, 4]: little activity
17 | 153.6 to 156 | 0.4 | 22.8 | CC(=N)Nc1ccc2[nH]c(-c3ccc(Cl)cc3)nc2c1 [Compound 20, N-[2-(4-chlorophenyl)benzimidazol-5-yl]acetamidine] | IC50 (PGE2; [5]): 0.3 to 0.8 µM; IC50, formation of PGE2 (PGE2; [4]): sub-micromolar; inhibiting the production of NO (in words) [1, 4]: little activity
18 |  | 0.8 | 84.5 | CC(=N)Nc1ccc2[nH]c(-c3ccccc3)nc2c1 [Compound 21, N-(2-phenyl-3H-benzimidazol-5-yl)acetamidine hydrochloride] | IC50 (PGE2; [5]): 0.3 to 0.8 µM; IC50, formation of PGE2 (PGE2; [4]): sub-micromolar; inhibiting the production of NO (in words) [1, 4]: little activity
19 |  | 31.5 | 123 | CCCCCc1nc2ccc(NC(C)=N)cc2[nH]1 [Compound 22, N-(2-pentyl-3H-benzimidazol-5-yl)acetamidine dihydrochloride] | 
20 |  | 2 | 250 | CC(=N)Nc1ccc2[nH]c(-c3ccc[nH]3)nc2c1 [Compound 23, N-[2-(pyrrol-2-yl)-3H-benzimidazol-5-yl]acetamidine dihydrochloride] | 
21 | 197 to 199 |  |  | Br.CC(=N)Nc1ccc2nc(-c3ccc[nH]3)[nH]c2c1 [Compound 24, N-[2-(pyrrol-2-yl)-3H-benzimidazol-5-yl]acetamidine hydrobromide] | 
22 |  |  | 174 | COC(=O)c1ccc(-c2nc3cc(NC(C)=N)ccc3[nH]2)cc1 [Compound 25, Methyl 4-(5-acetimidoylamino-1H-benzimidazol-2-yl)benzoate hydrochloride] | Inhibition % IC50 PGE2 (PGE2; [6]): IN (IN = <25% inhibitory activity at 30 × 10^−6M)
23 | 271.5 to 274.3 |  |  | CC(=N)Nc1ccc2[nH]c(-c3ccc(C(=O)O)cc3)nc2c1 [Compound 26, 4-(5-acetimidoylamino-1H-benzimidazol-2-yl)benzoic acid] | Inhibition % IC50 PGE2 (PGE2; [6]): IN (IN = <25% inhibitory activity at 30 × 10^−6M)
24 |  |  |  | CC(=N)Nc1ccc2[nH]c(-c3cccc(C(F)(F)F)c3)nc2c1 [Compound 36, N-[2-(3-trifluoromethylphenyl)benzimidazole-5-yl]acetamidine hydrobromide] | Inhibition % IC50 PGE2 (PGE2; [6]): IN (IN = <25% inhibitory activity at 30 × 10^−6M)
25 |  |  |  | CC(=N)Nc1ccc2[nH]c(-c3ccccc3F)nc2c1 [Compound 38, N-[2-(2-fluorophenyl)benzimidazol-5-yl]acetamidine hydrobromide] | Inhibition % IC50 PGE2 (PGE2; [6]): IN (IN = <25% inhibitory activity at 30 × 10^−6M)
26 | 166.7 to 169.1 | 8.4 |  | CC(=N)Nc1ccc2sc(-c3ccc[nH]3)nc2c1 [Compound 40, N-[2-(pyrrol-2-yl)benzothiazol-5-yl]acetamidine] | 
27 | 205.6 to 207.1 |  |  | COc1ccccc1-c1[nH]c2ccc(NC(C)=N)cc2[n+]1C [Compound 44, N-[1-methyl-2-(2-methoxyphenyl)benzimidazol-6-yl]acetamidine] | 
28 |  |  |  | N-[2-phenylbenzothiazol-5-yl]cyclopropylcarboxamidine [Compound 41] | IC50 (PGE2; rabbit articular chondrocytes, IL-1β 1 ng/ml, 48 hours, RIA, read-out: Inhibition % IC50 PGE2): 4 µM; Inhibition % IC50 NO ([1]; rabbit articular chondrocytes, IL-1β 1 ng/ml, 48 hours, nitrite in supernatant): IN (IN = <25% inhibitory activity at 30 × 10^−6M)
